From PMC12350473, “Pharmacokinetics and brain tissue distribution of Gastrodia elata extract in normal and cerebral ischemic rats: a comparative study” (Frontiers in Pharmacology, 2025)

What was measured:
in vivo = conditions: male, Sprague-Dawley, rat, po
[1] = Plasma pharmacokinetics of GEB constituents after oral GEB extract in normal and MCAO rats (UPLC-MS/MS, non-compartmental); conditions: for AUC0-t / Tmax / AUC0−∞ / CLz/F / Cmax / MRT0-t / T1/2 / Vz/F: plasma
[2] = Brain tissue distribution of GEB constituents after oral GEB extract in normal and MCAO rats; format: in vivo
Description: An independent cohort (n = 6/group) was sacrificed under deep anesthesia (pentobarbital sodium 40 mg/kg, i. p.) at 0.5 h, 1 h, 3 h, and 12 h post-final dosing. Cerebral perfusion was performed with ice-cold normal saline via left ventricular cannulation to eliminate residual blood. Whole brains were rapidly excised, weighed, and homogenized in four volumes of phosphate-buffered saline (pH 7.4) using a tissue grinder (Precellys 24, Bertin Technologies, France). Homogenates were centrifuged at 12,000 × g for 15 min at 4°C. The supernatants were filtered through 0.22 μm PVDF membranes and aliquoted into polypropylene tubes.
Weigh 300 mg of rat brain tissue and add 3 volumes of PBS solution. […] Collect the supernatant to obtain the test tissue homogenate. Take 400 µL of the homogenate, add 50 µL of internal standard solution and 1,150 µL of methanol, then vortex-mix for 5 min.

[3] = test system: cerebral ischemia in rats; assay: Therapeutic effect of GEB extract on cerebral ischemia (MCAO): mNSS, body weight, survival, TTC staining; format: in vivo; conditions: vs MCAO group, GEB low and high dose, nimodipine control
Description: High-dose GEB extract was prepared by adding 4.8 g of GEB extract in 40 mL of purified water to make a 120 mg/mL solution (calculated based on the human daily intake of 48 g of GEB).
The low dose of GEB was prepared by adding 2 g of GEB extract in 40 mL of purified water to make a 50 mg/mL solution (calculated based on the human daily intake of 20 g of GEB).
For preparing positive drugs, 2 nimodipine tablets (30 mg/tablet) were ground and added to 50 mL of purified water to make a 1.2 mg/mL solution (calculated based on the human daily intake of 120 mg of nimodipine).
After induction of deep anesthesia with pentobarbital (40 mg/kg), the rats were euthanized by cervical dislocation, followed by decapitation for brain removal. The brains were immediately flash-frozen in a freezer for 20 min. Then, the olfactory bulb and cerebellum were removed, the brain was cut into 6 coronal sections from anterior to posterior, stained with 1% TTC solution in the dark for 20 min at 37°C, and preserved in 4% paraformaldehyde for 30 min.
Rats were allocated into five groups: sham-operated (Sham), MCAO, low-dose GEB extract (GEB-L), high-dose GEB extract (GEB-H), and nimodipine control (NMDP). […] Longitudinal monitoring included body weight tracking and survival assessment, complemented by triphenyltetrazolium chloride (TTC) staining for cerebral infarction evaluation at study termination.

[4] = design: method as in Tang et al., 2015; conditions: ref Tang et al., 2015; cited from earlier work
[5] = MCAO rats, GEB extract 1,200 mg/kg oral gavage once daily for 3 days
[6] = MCAO rats, oral GEB extract 4.8 g/kg, n = 8
[7] = comparison among components after oral GEB extract
[8] = MCAO vs normal rats, range over PA, PB, PC, GAS, p < 0.05
[9] = normal rats, oral GEB extract 4.8 g/kg, n = 8

Compound | AUC0-t (in vivo; plasma, 4.8 g/kg) [ng·h/mL] | AUC(0-inf) (in vivo; plasma, 4.8 g/kg) [ng·h/mL] | CL/F (in vivo; plasma, 4.8 g/kg) [mL/min/kg] | Cmax (in vivo; plasma, 4.8 g/kg) [ng/mL] | MRT last (in vivo; plasma, 4.8 g/kg) [h] | Tmax (in vivo; plasma, 4.8 g/kg) [h] | half-life (in vivo; plasma, 4.8 g/kg) [h] | AUC0-t [1, 5] | AUC0-t [1, 6] | AUC0−∞ [1, 6] | CLz/F [1, 6] [mL/min/kg] | Cmax [1, 6] | MRT0-t [1, 6] [h] | T1/2 [1, 6] [h] | Tmax [1, 6] [h] | Vz/F [1, 6] | BBB penetration / cerebral distribution (in words) [2, 7] | Vz/F [1, 9] [L/kg] | also measured
N[C@@H](CCC(=O)N[C@@H](CSCc1ccc(O)cc1)C(=O)NCC(=O)O)C(=O)O [4-HBG, S-(4-hydroxybenzyl) glutathione] | 113 ± 37.7 | 120 ± 37 | 1090 | 24.1 ± 8.4 | 4.18 ± 0.51 | 3.5 ± 0.93 | 2.27 ± 1.14 | 129 ± 53 ng·h/mL | 124.8 ± 51.3 ng·h/mL | 129.1 ± 52.8 ng·h/mL | 1050 ± 367 | 24.6 ± 11.2 ng/mL | 4.37 ± 0.50 | 2.03 ± 0.24 | 3.75 ± 0.71 | 186.8 ± 73.0 L/kg |  |  | AUC0-t (in vivo; plasma, 1200 mg/kg): 120 ± 37 ng·h/mL; Tmax (in vivo; plasma, 1200 mg/kg): 2.3 ± 1.1 h; Vd/F (in vivo; plasma, 4.8 g/kg): 212 ± 102 L/kg; Tmax ([1]; MCAO rats, GEB extract oral): 2.03 ± 0.2 h
OCc1ccc(O[C@@H]2O[C@H](CO)[C@@H](O)[C@H](O)[C@H]2O)cc1 [GAS, gastrodin] |  |  |  |  |  |  |  | 4,836 ± 791 ng*h/mL | 4,835.6 ± 790.9 ng*h/mL | 4,914.0 ± 728.3 ng*h/mL | 53.3 ± 8.3 | 4,646.2 ± 1,195.9 ng/mL | 0.88 ± 0.20 | 0.58 ± 0.29 | 0.27 ± 0.16 | 2.7 ± 1.6 L/kg | limited BBB penetration |  | cerebral concentration ([2]; normal rats, brain tissue, GEB extract oral): < 40 ng/mL; AUC0-t (in vivo; in vivo, 1200 mg/kg): 6620 ng·h/mL; Cmax (in vivo; in vivo, 1200 mg/kg): 6620 ng/mL; AUC0-t (in vivo; in vivo, 4.8 g/kg): 6620 ng·h/mL; AUC(0-inf) (in vivo; in vivo, 4.8 g/kg): 6690 ng·h/mL; CL/F (in vivo; in vivo, 4.8 g/kg): 38.3 mL/min/kg; Cmax (in vivo; in vivo, 4.8 g/kg): 6620 ng/mL; MRT last (in vivo; in vivo, 4.8 g/kg): 0.83 ± 0.06 h; Tmax (in vivo; in vivo, 4.8 g/kg): 0.31 ± 0.12 h; Vd/F (in vivo; in vivo, 4.8 g/kg): 2 ± 0.2 L/kg; half-life (in vivo; in vivo, 4.8 g/kg): 0.6 ± 0.07 h; Cmax ([1]; MCAO rats, GEB extract 1,200 mg/kg oral once daily for 3 days): 4,646 ± 1,195 ng/mL; CLz/F increase in MCAO rats compared to controls [1, 8]: 1.4–2.0 fold
OCc1ccc(O)cc1 [HBA, 4-hydroxybenzyl alcohol] |  |  |  |  |  |  |  |  |  |  |  |  |  |  |  |  |  |  | concentration in rats (in words) ([1]; rats after oral GEB extract): very low
COCCOC(=O)C1=C(C)NC(C)=C(C(=O)OC(C)C)C1c1cccc([N+](=O)[O-])c1 (centres unmarked) [NMDP, nimodipine] |  |  |  |  |  |  |  |  |  |  |  |  |  |  |  |  |  |  | therapeutic effect on neurological deterioration, weight loss and infarction [3]: improved these outcomes
O=C(CC(O)(CC(=O)OCc1ccc(O[C@@H]2O[C@H](CO)[C@@H](O)[C@H](O)[C@H]2O)cc1)C(=O)OCc1ccc(O[C@@H]2O[C@H](CO)[C@@H](O)[C@H](O)[C@H]2O)cc1)OCc1ccc(O[C@@H]2O[C@H](CO)[C@@H](O)[C@H](O)[C@H]2O)cc1 [PA, Parishin A] | 148 ± 21.9 | 153 ± 23.5 | 8150 | 79.8 ± 9.8 | 1.26 ± 0.09 | 0.94 ± 0.18 | 0.74 ± 0.1 |  | 75.4 ± 29.3 ng·h/mL | 85.9 ± 25.0 ng·h/mL |  | 41.5 ± 18.5 ng/mL | 1.33 ± 0.27 | 1.41 ± 1.75 | 0.78 ± 0.31 | 1706.9 ± 1891.6 L/kg | superior BBB permeability | 518.7 ± 88.3 | average GAS molecules released per parent compound [4]: 1.5; conversion efficiency of partial hydrolysis in vivo [4]: 50%; CLz/F increase in MCAO rats compared to controls ([1]; rat, in vivo): 1.4–2.0 fold
O=C(O)CC(O)(CC(=O)OCc1ccc(O[C@@H]2O[C@H](CO)[C@@H](O)[C@H](O)[C@H]2O)cc1)C(=O)OCc1ccc(O[C@@H]2O[C@H](CO)[C@@H](O)[C@H](O)[C@H]2O)cc1 (some centres unmarked) [PB, Parishin B] | 215 ± 37.4 | 230 ± 50.9 | 2790 |  | 1.42 ± 0.13 | 1 |  |  | 108.0 ± 48.8 ng·h/mL | 123.7 ± 38.8 ng·h/mL | 5497 ± 1755 | 48.8 ± 22.9 ng/mL | 1.63 ± 0.53 | 2.16 ± 2.76 | 0.72 ± 0.31 | 1,034.1 ± 1,468.2 L/kg | superior BBB permeability | 237.9 ± 98.4 | Cmax [1, 9]: 112.8 ± 22.8 ng/mL; T1/2 [1, 9]: 1.01 ± 0.42 h; CLz/F increase in MCAO rats compared to controls ([1]; rat, in vivo): 1.4–2.0 fold
O=C(CC(O)(CC(=O)OCc1ccc(O[C@@H]2O[C@H](CO)[C@@H](O)[C@H](O)[C@H]2O)cc1)C(=O)O)OCc1ccc(O[C@@H]2O[C@H](CO)[C@@H](O)[C@H](O)[C@H]2O)cc1 [PC, Parishin C] | 56.4 ± 16.2 | 71.1 ± 18.5 | 1740 | 21.5 ± 5.8 | 1.78 ± 0.3 | 0.94 ± 0.5 | 1.84 ± 0.56 |  | 30.1 ± 9.6 ng·h/mL | 41.5 ± 15.7 ng·h/mL | 3078 ± 1070 | 12.1 ± 4.6 ng/mL | 1.68 ± 0.29 | 2.35 ± 2.08 | 1.13 ± 0.35 | 543.6 ± 442.8 L/kg |  | 266.7 ± 78.4 | BBB penetration / cerebral distribution (in words) ([2]; rat, in vivo, po): superior BBB permeability; CLz/F increase in MCAO rats compared to controls [1, 8]: 1.4–2.0 fold
O=C(O)CC(O)(CC(=O)OCc1ccc(O[C@@H]2O[C@H](CO)[C@@H](O)[C@H](O)[C@H]2O)cc1)C(=O)O (some centres unmarked) [PE, Parishin E] | 1210 | 1310 | 697 | 375 ± 45.5 | 2.41 ± 0.33 | 1.13 ± 0.35 | 1.82 ± 1.13 | 1,148 ± 530 ng*h/mL | 1,107.5 ± 517.6 ng*h/mL | 1,147.5 ± 530.4 ng*h/mL |  | 324.9 ± 129.0 ng/mL | 2.68 ± 0.76 | 1.95 ± 1.03 | 1.25 ± 0.46 | 113.9 ± 64.2 L/kg | moderate cerebral distribution |  | concentration at 12 h ([2]; male, Sprague-Dawley, rat, brain, oral, 1200 mg/kg, MCAO rats, 12 h post-final dosing): 4.25 ± 2.46 ng/g; AUC0-t (in vivo; plasma, 1200 mg/kg): 1310 ng·h/mL; Vd/F (in vivo; plasma, 4.8 g/kg): 78.6 ± 24.2 L/kg
